In patent US20140378496A1, “OPIOID […] 3-HYDROXYA[…] TREATING PAIN” (SLX PHARMACEUTICALS, LLC, priority 2011, published 2014):

Test system: visceral pain model in mice
Test: Acetic acid writhing protocol (abdominal contortion test), visceral pain model in mice
Assay type: in vivo, male Swiss Webster mice
Conditions: 50-400 mg/kg PO; lowest dose (50 mpk) removed as apparent outlier
Procedure: In order to test the analgesic activity of the combination of an opioid (hydrocodone) and 3-hydroxyacetanilide, both compounds were tested separately and in combination in a visceral pain model in mice.
Experimental animals: One hundred fifty-five 4-week old, male Swiss Webster mice (stock number 024) were purchased from Charles River Laboratories (Portage, Mich.). The study animals were allowed an acclimation period of 1-2 weeks prior to dose initiation. The mice were housed 4-6 per cage and maintained in the Innovive caging system (San Diego, Calif.) upon arrival at. In accordance with the Guide for Care and Use of Laboratory Animals (Eighth Edition), mouse rooms were maintained at temperatures of 66-75 degrees Fahrenheit and relative humidity between 30% and 70%. Cages were monitored daily to ensure the Innovive system maintained 50 air changes per hour and positive pressure. The rooms were lit by artificial light for 12 hours each day (7:00 AM -7:00 PM). […]
Animals were allowed to acclimate to the testing room for a minimum of 1 hour prior to the experiment. […] The number of writhes over a 5 min duration were counted (5-10 and 15-20 min post-dose) starting 5 min after acetic acid administration. […]

Compound: CC(=O)Nc1cccc(O)c1 [3-hydroxyacetanilide]
- shape of dose response curve (% AA vs dose): bell-shaped
